In paper PMC10363480 (Plant Communications, 2023):

These sequences were tested on mitochondria or chloroplast of Chlamydomonas reinhardtii (assay: Subcellular localization of Venus reporter by epifluorescence microscopy (manual targeting assignment)). Settings: manual targeting assignment of the Venus reporter construct in Chlamydomonas: Neither / Mitochondria / Chloroplast / Dual, (partial) = partial targeting.
Format: cell-based
Excerpt: In a bid to keep peptidase recognition sites intact, C-terminal elements were designed to start 10 residues upstream of the cleavage site, even though this slightly truncates TP helices. Peptides carrying the 15-amino-acid cTP N-terminus (cTP-N) will be denoted ^cP. Similarly, peptides with C-terminal elements from RCA1-cTP (cTP-C) or CAG2-mTP (mTP-C) will be denoted P^c or P^m, respectively. Peptide variants are used to drive the subcellular localization of a Venus fluorescent reporter protein, which was assessed using fluorescence microscopy; in Figure 2, an executive overview of observed Venus localization is presented for all constructs. […] Here, we use automated image segmentation to validate our subcellular localization assessment (Supplemental Figure 2, Supplemental text). […] The reader will be asked to return to Figure 2 throughout, with Figures 3 and 4 providing selected micrographs as examples highlighting particular points of interest.
Chlamydomonas TP sequences were amplified from genomic DNA extracted from strain T222+ (CC-5101). Templates for codon-optimized HA-RAMP, RP, and R→K modified TP sequences were obtained by gene synthesis (Eurofins Genomics). Correct assembly was verified by sequencing (Eurofins Genomics). Linear transformation cassettes were generated through restriction digestion with EcoRV (New England Biolabs).
Constructs were transformed into wild-type strain T222+ (CC-5101) using a protocol described previously ([Onishi and Pringle, 2016]), except using 4 μl of DNA at 2 μg/μl.
Strains with suspected mitochondrial targeting were treated with 0.1 μM MitoTracker Red CMXRos (Thermo Fisher Scientific) in growth medium for 30 min in the dark and washed with TAP prior to taking images.
Legend for Fig. S3 – S20. Three independent transformant lines (Strains 1-3) are shown for each combination of modifications (A-L), represented by a cartoon and a shorthand description (cf. Fig.
2). Where a construct was interpreted as generating reporter localization in mitochondria or […]
Epifluorescence microscopy images of typical cells for each strain are shown. MitoTracker fluorescence, false-coloured in cyan, indicates the position of mitochondria (although parts of the cell exterior are sometimes also stained). False-coloured yellow fluorescence from the Venus channel reports on the subcellular localization of the fluorescent reporter. Chlorophyll autofluorescence, shown in magenta, indicates the location of the chloroplast. Scale bars are 5µm. Brightness (Br.) was adjusted for clarity: fluorescence intensity values were restricted to the range shown for each channel by matching coloured rectangles. Intensity scales to 0 at the bottom of the panel, and to 65535 at the top.
On the right-hand side, quantitative information associated with each construct is shown. Data was normalized such that averages range from 0 to 1 across all constructs (cf. Fig S2). Individual cell measurements may exceed this range; for clarity, the range shown here is limited to -0.5 to 1.5, with outliers that have more extreme values shown as lying beyond a dashed line. Strain 1 is plotted as circles, strain 2 as squares, and strain 3 as diamonds. Venus: Fluorescence plate reader data of transformants screened for this construct (Venus fluorescence, accounting for cell density using linear regression of OD750 and chlorophyll fluorescence trained on ‘no venus’ control transformants). Transformants that were not selected after screening are shown as small grey circles. A colour code ranging from white (low Venus fluorescence) to black (high Venus fluorescence) is used for strains 1-3 and the average thereof. Automated image quantification data: pyr/chl: Venus channel signal in the pyrenoid relative to in the chlorophyll region; mt/cell: Venus channel signal in mitochondria relative to the whole cell. Each point corresponds to a single cell.
The colour code code is the same as that below distributions in Fig. S2, i.e. blue highlights the […]
In the case of “MGLLLDTLRGAARDIAGIALERLRCRITGCRP [R2G.R]”, the Localisation is reported as “Mitochondria (partial)”. With “MGLLLDTLRGAARDIAGIALERLRCRITGCRPLTQTAESFRGVSSQFFDAPNGPSVKQVLIEDEW [R2G.R.m]” the Localisation was “Mitochondria”. For “MGLLLDTLRGAARDIAGIALERLRCRITGCRPSVRRAQLQVVASSRKQMGRWRSIDAGVDASDDQ [R2G.R.c]”, the Localisation was “Neither”. In the case of “MGRIPVRAIRRAGAAIGRGLRAINIASTAHDVYSFFRPRHRRR [SIM.R]”, the Localisation is reported as “Neither”. With “MGRIPVRAIRRAGAAIGRGLRAINIASTAHDVYSFFRPRHRRRLTQTAESFRGVSSQFFDAPNGPSVKQVLIEDEW [SIM.R.m]” the Localisation was “Neither”. In the case of “MGRIPVRAIRRAGAAIGRGLRAINIASTAHDVYSFFRPRHRRRSVRRAQLQVVASSRKQMGRWRSIDAGVDASDDQ [SIM.R.c]”, the Localisation is reported as “Neither”. In the case of “MGWIRDFGRRIERVGQHTRDATIQTIAVAQQAANVAATLRG [S1D.R]”, the Localisation is reported as “Neither”. In the case of “MGWIRDFGRRIERVGQHTRDATIQTIAVAQQAANVAATLRGLTQTAESFRGVSSQFFDAPNGPSVKQVLIEDEW [S1D.R.m]”, the Localisation is reported as “Neither”. With “MGWIRDFGRRIERVGQHTRDATIQTIAVAQQAANVAATLRGSVRRAQLQVVASSRKQMGRWRSIDAGVDASDDQ [S1D.R.c]” the Localisation was “Chloroplast (partial)”. In the case of MLKKVGQSLVPFAKAG [MH.K], the Localisation is reported as “Neither”. For “MLKKVGQSLVPFAKAGLTQTAESFKGVSSQFFDAPNGPSVKQVLIEDEW [MH.K.m]”, the Localisation was “Neither”. For “MLKKVGQSLVPFAKAGSVRRAQLQVVASSRKQMGRWRSIDAGVDASDDQ [MH.K.c]”, the Localisation was “Dual”. For MLKRVGQSLVPFARAG [MH.R], the Localisation was “Mitochondria (partial)”. For “MLKRVGQSLVPFARAGLTQTAESFRGVSSQFFDAPNGPSVKQVLIEDEW [MH.R.m]”, the Localisation was “Mitochondria (partial)”. In the case of “MLKRVGQSLVPFARAGSVRRAQLQVVASSRKQMGRWRSIDAGVDASDDQ [MH.R.c]”, the Localisation is reported as “Dual”. “MLTQTAESFRGVSSQFFDAPNGPSVKQVLIEDEW [-.m]” was tested, and the Localisation was “Neither”. MQVTMKSSAVSGQKVGGAKVATK [c.CH.K] was tested, and the Localisation was “Neither”. With “MQVTMKSSAVSGQKVGGAKVATKLTQTAESFRGVSSQFFDAPNGPSVKQVLIEDEW [c.CH.K.m]” the Localisation was “Neither”. In the case of “MQVTMKSSAVSGQKVGGAKVATKSVKKAQLQVVASSKKQMGKWKSIDAGVDASDDQ [c.CH.K.c]”, the Localisation is reported as “Chloroplast (partial)”. “MQVTMKSSAVSGQRVALWRTMLRRLGTMALHAGRAAFGAAADTISQ [c.DDM.R]” was tested, and the Localisation was “Mitochondria (partial)”. “MQVTMKSSAVSGQRVALWRTMLRRLGTMALHAGRAAFGAAADTISQLTQTAESFRGVSSQFFDAPNGPSVKQVLIEDEW [c.DDM.R.m]” was tested, and the Localisation was “Neither”. In the case of “MQVTMKSSAVSGQRVALWRTMLRRLGTMALHAGRAAFGAAADTISQSVRRAQLQVVASSRKQMGRWRSIDAGVDASDDQ [c.DDM.R.c]”, the Localisation is reported as “Chloroplast”. “MQVTMKSSAVSGQRVDEVNNDNCRIRFRGDISSESDRMNINY [c.RP2.R]” was tested, and the Localisation was “Neither”. “MQVTMKSSAVSGQRVDEVNNDNCRIRFRGDISSESDRMNINYLTQTAESFRGVSSQFFDAPNGPSVKQVLIEDEW [c.RP2.R.m]” was tested, and the Localisation was “Neither”. With “MQVTMKSSAVSGQRVDEVNNDNCRIRFRGDISSESDRMNINYSVRRAQLQVVASSRKQMGRWRSIDAGVDASDDQ [c.RP2.R.c]” the Localisation was “Neither”.

Same assay, conditions: peptide-Venus reporter construct expressed in Chlamydomonas reinhardtii; manual targeting assignment (Neither / Mitochondria / Chloroplast / Dual; partial = partial targeting)
With “MKYYGNGVHCTKSGCSVNWGEAFSAGVHRLANGGNGFW [LCA.K]” the Localisation was “Neither”. In the case of “MKYYGNGVHCTKSGCSVNWGEAFSAGVHRLANGGNGFWLTQTAESFRGVSSQFFDAPNGPSVKQVLIEDEW [LCA.K.m]”, the Localisation is reported as “Neither”. With “MKYYGNGVHCTKSGCSVNWGEAFSAGVHRLANGGNGFWSVRRAQLQVVASSRKQMGRWRSIDAGVDASDDQ [LCA.K.c]” the Localisation was “Chloroplast (partial)”. With “MKYYGNGVHCTRSGCSVNWGEAFSAGVHRLANGGNGFW [LCA.R]” the Localisation was “Neither”. For “MKYYGNGVHCTRSGCSVNWGEAFSAGVHRLANGGNGFWLTQTAESFRGVSSQFFDAPNGPSVKQVLIEDEW [LCA.R.m]”, the Localisation was “Neither”. With “MKYYGNGVHCTRSGCSVNWGEAFSAGVHRLANGGNGFWSVRRAQLQVVASSRKQMGRWRSIDAGVDASDDQ [LCA.R.c]” the Localisation was “Chloroplast (partial)”. With “MQVTMKSSAVSGQRVALWMTLLKKVLKAAAKAALNAVLVGANA [c.DS4.K]” the Localisation was “Neither”. In the case of “MQVTMKSSAVSGQRVALWMTLLKKVLKAAAKAALNAVLVGANALTQTAESFRGVSSQFFDAPNGPSVKQVLIEDEW [c.DS4.K.m]”, the Localisation is reported as “Neither”. With “MQVTMKSSAVSGQRVALWMTLLRRVLRAAARAALNAVLVGANA [c.DS4.R]” the Localisation was “Neither”. With “MQVTMKSSAVSGQRVFLPLLAGLAANFLPKIFCKITRKCSVRRAQLQVVASSRKQMGRWRSIDAGVDASDDQ [c.B1E.K.c]” the Localisation was “Chloroplast”.

Same assay, conditions: targeting of the Venus reporter fused to the peptide, expressed in Chlamydomonas reinhardtii; manual assignment from epifluorescence microscopy; full or partial
With “MGLLLDTLKGAAKDIAGIALEKLKCKITGCKPLTQTAESFRGVSSQFFDAPNGPSVKQVLIEDEW [R2G.K.m]” the Localisation was “Mitochondria (partial)”. “MGLLLDTLKGAAKDIAGIALEKLKCKITGCKPSVRRAQLQVVASSRKQMGRWRSIDAGVDASDDQ [R2G.K.c]” was tested, and the Localisation was “Neither”. “MGWIRDFGKRIERVGQHTRDATIQTIAVAQQAANVAATLKG [S1D.K]” was tested, and the Localisation was “Neither”. For “MGWIRDFGKRIERVGQHTRDATIQTIAVAQQAANVAATLKGLTQTAESFRGVSSQFFDAPNGPSVKQVLIEDEW [S1D.K.m]”, the Localisation was “Neither”. “MGWIRDFGKRIERVGQHTRDATIQTIAVAQQAANVAATLKGSVRRAQLQVVASSRKQMGRWRSIDAGVDASDDQ [S1D.K.c]” was tested, and the Localisation was “Chloroplast”. “MKYYGNGVSCNKKGCSVDWGKAIGIIGNNAAANLTTGGKAGWKG [EHF.K]” was tested, and the Localisation was “Neither”. “MKYYGNGVSCNKKGCSVDWGKAIGIIGNNAAANLTTGGKAGWKGLTQTAESFRGVSSQFFDAPNGPSVKQVLIEDEW [EHF.K.m]” was tested, and the Localisation was “Neither”. “MKYYGNGVSCNKKGCSVDWGKAIGIIGNNAAANLTTGGKAGWKGSVRRAQLQVVASSRKQMGRWRSIDAGVDASDDQ [EHF.K.c]” was tested, and the Localisation was “Chloroplast (partial)”. MNIVVYWNFTLWHMDINARNAGCDGEGS [RP1.K] was tested, and the Localisation was “Neither”. For “MNIVVYWNFTLWHMDINARNAGCDGEGSLTQTAESFRGVSSQFFDAPNGPSVKQVLIEDEW [RP1.K.m]”, the Localisation was “Neither”. With “MNIVVYWNFTLWHMDINARNAGCDGEGSSVRRAQLQVVASSRKQMGRWRSIDAGVDASDDQ [RP1.K.c]” the Localisation was “Neither”. For MQVTMKSSAVSGQRV [c.-], the Localisation was “Neither”. In the case of “MQVTMKSSAVSGQRVAAAAAAAASVRRAQLQVVASSRKQMGRWRSIDAGVDASDDQ [c.AA.c]”, the Localisation is reported as “Chloroplast (partial)”. With “MQVTMKSSAVSGQRVALWMTLLKKVLKAAAKAALNAVLVGANASVRRAQLQVVASSRKQMGRWRSIDAGVDASDDQ [c.DS4.K.c]” the Localisation was “Neither”. In the case of “MQVTMKSSAVSGQRVALWMTLLRRVLRAAARAALNAVLVGANALTQTAESFRGVSSQFFDAPNGPSVKQVLIEDEW [c.DS4.R.m]”, the Localisation is reported as “Neither”. In the case of “MQVTMKSSAVSGQRVALWMTLLRRVLRAAARAALNAVLVGANASVRRAQLQVVASSRKQMGRWRSIDAGVDASDDQ [c.DS4.R.c]”, the Localisation is reported as “Neither”. For “MQVTMKSSAVSGQRVDEVNNDNCRIKFKGDISSESDKMNINY [c.RP2.K]”, the Localisation was “Neither”. For “MQVTMKSSAVSGQRVDEVNNDNCRIKFKGDISSESDKMNINYLTQTAESFRGVSSQFFDAPNGPSVKQVLIEDEW [c.RP2.K.m]”, the Localisation was “Neither”. For “MQVTMKSSAVSGQRVDEVNNDNCRIKFKGDISSESDKMNINYSVRRAQLQVVASSRKQMGRWRSIDAGVDASDDQ [c.RP2.K.c]”, the Localisation was “Neither”. With “MQVTMKSSAVSGQRVFLPLLAGLAANFLPKIFCKITRKC [c.B1E.K]” the Localisation was “Mitochondria”. In the case of “MQVTMKSSAVSGQRVFLPLLAGLAANFLPKIFCKITRKCLTQTAESFRGVSSQFFDAPNGPSVKQVLIEDEW [c.B1E.K.m]”, the Localisation is reported as “Dual”.
